The test has as its system HeLa human cervical tumor cells (ATCC CCL-2). The test is described as follows: Proliferation Assay (crystal violet staining, 4 days). The format is cell-based. Particulars: 96 h, 4 days incubation, read-out: EO-PROLIF-HELA. As for the experimental part: Biological Assay: Proliferation Assay
Cultivated HeLa human cervical tumor cells (ATCC CCL-2) were plated at a density of 3000 cells/well in a 96-well multititer plate in 200 μl DMEM/HAMS F12 medium supplemented with 2 mM L-Glutamine and 10% fetal calf serum. After 24 hours, the cells of one plate (zero-point plate) were stained with crystal violet (see below), while the medium of the other plates was replaced by fresh culture medium (200 μl), to which the test substances were added in various concentrations (0 μM, as well as in the range of 0.01-30 μM; the final concentration of the solvent dimethyl sulfoxide was 0.5%). The cells were incubated for 4 days in the presence of test substances. Cell proliferation was determined by staining the cells with crystal violet: the cells were fixed by adding 20 μl/measuring point of an 11% glutaric aldehyde solution for 15 minutes at room temperature. After three washing cycles of the fixed cells with water, the plates were dried at room temperature. The cells were stained by adding 100 μl/measuring point of a 0.1% crystal violet solution (pH 3.0). After three washing cycles of the stained cells with water, the plates were dried at room temperature. The dye was dissolved by adding 100 μl/measuring point of a 10% acetic acid solution. The extinction was determined by photometry at a wavelength of 595 nm. The change of cell number, in percent, was calculated by normalization of the measured values to the extinction values of the zero-point plate (=0%) and the extinction of the untreated (0 μm) cells (=100%). The IC50 values were determined by means of a 4 parameter fit using the company's own software.

We go through 24 molecules from patent publication US9340528B2, “Substituted aminoquinoxalines as tyrosine threonine kinase inhibitors” (BAYER PHARMA AKTIENGESELLSCHAFT, priority 2009, dated 2016).

The structures appear in SMILES notation.

On to `O=C(Cc1ccccc1)Nc1ccc(-c2ccc3ncc(N4CCOCC4)nc3c2)cc1` [Example 4.3, N-{4-[3-(morpholin-4-yl)quinoxalin-6-yl]phenyl}-2-phenylacetamide], for which the IC50 is 10000 nM.

`O=C(NCc1ccccc1)Nc1ccc(-c2ccc3ncc(N4CCOCC4)nc3c2)cc1` [Example 6.6, 1-benzyl-3-{4-[3-(morpholin-4-yl)quinoxalin-6-yl]phenyl}urea]: the IC50 is 10000 nM.

Take `O=C(Nc1ccc(-c2ccc3ncc(N4CCN(c5ccncc5)CC4)nc3c2)cc1)NC1CC1` [Example 8.3, 1-cyclopropyl-3-(4-{3-[4-(pyridin-4-yl)piperazin-1-yl]quinoxalin-6-yl}phenyl)urea]: the IC50 came out at 3000 nM.

For the molecule `O=C(Cc1ccccc1F)Nc1ccc(-c2ccc3ncc(N4CCN(Cc5cccnc5)CC4)nc3c2)cc1` [Example 9.2, 2-(2-fluorophenyl)-N-(4-{3-[4-(pyridin-3-ylmethyl)piperazin-1-yl]quinoxalin-6-yl}phenyl)acetamide], the IC50 stood at 3000 nM.

Turning to `O=C(CC1CC1)Nc1ccc(-c2ccc3ncc(N4CCN(c5ccncc5)CC4)nc3c2)cc1` [Example 7.7, 2-cyclopropyl-N-(4-{3-[4-(pyridin-4-yl)piperazin-1-yl]quinoxalin-6-yl}phenyl)acetamide], the IC50 stood at 1710 nM.

As for `Oc1ccc(-c2ccc3ncc(N4CCN(c5ccncc5)CC4)nc3c2)cc1` [Example 3.15, 4-{3-[4-(pyridin-4-yl)piperazin-1-yl]quinoxalin-6-yl}phenol], the IC50 worked out at 2920 nM.

Regarding `Oc1ccc(-c2ccc3ncc(N4CCN(Cc5cccnc5)CC4)nc3c2)cc1` [Example 3.35, 4-{3-[4-(pyridin-3-ylmethyl)piperazin-1-yl]quinoxalin-6-yl}phenol], the IC50 was determined as 8250 nM.

Regarding `CN1CCN(Cc2ccc(NC(=O)Nc3ccc(-c4ccc5ncc(N6CCCCC6)nc5c4)cc3)cc2C(F)(F)F)CC1` [Example 2.73, 1-{4-[(4-methylpiperazin-1-yl)methyl]-3-(trifluoromethyl)phenyl}-3-{4-[3-(piperidin-1-yl)quinoxalin-6-yl]phenyl}urea], the IC50 came out at 1120 nM.

In the case of `CN1CCN(Cc2ccc(NC(=O)Nc3ccc(-c4ccc5ncc(N6CCOCC6)nc5c4)cc3)cc2C(F)(F)F)CC1` [Example 1.71, 1-{4-[(4-methylpiperazin-1-yl)methyl]-3-(trifluoromethyl)phenyl}-3-{4-[3-(morpholin-4-yl)quinoxalin-6-yl]phenyl}urea], the IC50 was 889 nM.

On to `O=C(Cc1cccc(C(F)(F)F)c1)Nc1ccc(-c2ccc3ncc(N4CCOCC4)nc3c2)cc1` [Example 4.13, N-{4-[3-(morpholin-4-yl)quinoxalin-6-yl]phenyl}-2-[3-(trifluoromethyl)phenyl]acetamide], for which the IC50 turned out to be 8120 nM.

With `CC(C(=O)Nc1ccc(-c2ccc3ncc(N4CCN(c5ccncc5)CC4)nc3c2)cc1)c1ccccc1` (stereo not drawn) [Example 7.3, 2-phenyl-N-(4-{3-[4-(pyridin-4-yl)piperazin-1-yl]quinoxalin-6-yl}phenyl)propanamide], the IC50 amounted to 2560 nM.

For the molecule `O=C(CCc1ccccc1)Nc1ccc(-c2ccc3ncc(N4CCN(c5ccncc5)CC4)nc3c2)cc1` [Example 7.4, 3-phenyl-N-(4-{3-[4-(pyridin-4-yl)piperazin-1-yl]quinoxalin-6-yl}phenyl)propanamide], the IC50 is 1430 nM.

Consider `Oc1ccc(-c2ccc3ncc(N4CCOCC4)nc3c2)cc1` [Example 3.5, 4-[3-(morpholin-4-yl)quinoxalin-6-yl]phenol], for which the IC50 was 2510 nM.

On to `O=C(Cc1ccccc1F)Nc1ccc(-c2ccc3ncc(N4CCN(c5ccncc5)CC4)nc3c2)cc1` [Example 7.2, 2-(2-fluorophenyl)-N-(4-{3-[4-(pyridin-4-yl)piperazin-1-yl]quinoxalin-6-yl}phenyl)acetamide], for which the IC50 came out at 2840 nM.

As for `O=C(Cc1ccccc1)Nc1ccc(-c2ccc3ncc(N4CCN(Cc5cccnc5)CC4)nc3c2)cc1` [Example 9.1, 2-phenyl-N-{4-[3-(4-pyridin-3-ylmethyl-piperazin-1-yl)-quinoxalin-6-yl]-phenyl}-acetamide], the IC50 amounted to 3000 nM.

In the case of `CC(C(=O)Nc1ccc(-c2ccc3ncc(N4CCN(Cc5cccnc5)CC4)nc3c2)cc1)c1ccccc1` (stereo not drawn) [Example 9.3, 2-phenyl-N-(4-{3-[4-(pyridin-3-ylmethyl)piperazin-1-yl]quinoxalin-6-yl}phenyl)propanamide], the IC50 amounted to 3000 nM.

As to `Cc1cc(-c2ccc3ncc(N4CCOCC4)nc3c2)cc(C)c1O` [Example 1.108, 2,6-dimethyl-4-[3-(morpholin-4-yl)quinoxalin-6-yl]phenol], the IC50 amounted to 2320 nM.

Consider `O=C(Nc1ccccc1)c1ccc(-c2ccc3ncc(N4CCCCC4)nc3c2)cc1` [Example 2.90, N-phenyl-4-[3-(piperidin-1-yl)quinoxalin-6-yl]benzamide], for which the IC50 was found to be 3000 nM.

In the case of `O=C(Cc1ccccn1)Nc1ccc(-c2ccc3ncc(N4CCN(c5ccncc5)CC4)nc3c2)cc1` [Example 7.6, 2-(pyridin-2-yl)-N-(4-{3-[4-(pyridin-4-yl)piperazin-1-yl]quinoxalin-6-yl}phenyl)acetamide], the IC50 was determined as 2790 nM.

For the molecule `CC(=O)Nc1ccc(-c2ccc3ncc(N4CCOCC4)nc3c2)cc1` [Example 1.73, N-{4-[3-(morpholin-4-yl)quinoxalin-6-yl]phenyl}acetamide], the IC50 came out at 3000 nM.

On to `O=C(Nc1ccc(-c2ccc3ncc(N4CCOCC4)nc3c2)cc1)Nc1cccnc1` [Example 6.8, 1-{4-[3-(morpholin-4-yl)quinoxalin-6-yl]phenyl}-3-pyridin-3-ylurea], for which the IC50 is 3930 nM.

Turning to `CNC(=O)c1ccc(-c2ccc3ncc(N4CCOCC4)nc3c2)cc1` [Example 1.47, N-methyl-4-[3-(morpholin-4-yl)quinoxalin-6-yl]benzamide], the IC50 came to 3000 nM.

On to `O=C(Cc1ccccc1)Nc1ccc(-c2ccc3ncc(N4CCN(c5ccncc5)CC4)nc3c2)cc1` [Example 7.1, 2-phenyl-N-{4-[3-(4-pyridin-4-yl-piperazin-1-yl)-quinoxalin-6-yl]-phenyl}-acetamide], for which the IC50 came to 2610 nM.

For `Oc1ccc(-c2ccc3ncc(N4CCN(c5cnccn5)CC4)nc3c2)cc1` [Example 3.17, 4-{3-[4-(pyrazin-2-yl)piperazin-1-yl]quinoxalin-6-yl}phenol], the IC50 is 3870 nM.
